Our source for the IC50 and Emax values is patent publication US20260137706A1, “METHODS OF TREATING INFLAMMATORY DISEASES” (INTERLINE THERAPEUTICS, INC., priority 2023, published 2026).

The target of assay [1] is T1, GST-RIPK2 fusion protein (human RIPK2, amino acids 1-310) (Homo sapiens, UniProt O43353).
T1 construct: made in house; host or cells: baculovirus infected Sf9 cells
The experiment in a line: RIPK2 binding competition assay (TR-FRET, Tracer 199 displacement). To be noted: 10 nM Tracer 199, 1 nM GST-RIPK2, read-out: RIPK2 IC50. A digest of the protocol: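 IC50 derived from the TR-FRET emission ratio (665/620 nm, 337 nm excitation), normalized with no-inhibitor and no-enzyme controls. Incubation 45 min at 22 °C, pH 7.5 Tris buffer, with final 10 nM tracer, 1 nM Sf9-expressed GST-RIPK2 fragment (aa 1-310) and 0.5 nM Tb-labelled anti-GST.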
(In general: In TR-FRET formats the signal depends on donor and acceptor labels being close together.)

For assay [2], the target named is T2, binding of His-XIAP(BIR2)-avi fusion protein to GST-RIPK2 fusion protein (RIPK2/XIAP) (Homo sapiens, UniProt O43353).
T2 construct: made in house; host or cells: baculovirus infected Sf9 cells
T2 sequence (O43353 1-310 limits assumed): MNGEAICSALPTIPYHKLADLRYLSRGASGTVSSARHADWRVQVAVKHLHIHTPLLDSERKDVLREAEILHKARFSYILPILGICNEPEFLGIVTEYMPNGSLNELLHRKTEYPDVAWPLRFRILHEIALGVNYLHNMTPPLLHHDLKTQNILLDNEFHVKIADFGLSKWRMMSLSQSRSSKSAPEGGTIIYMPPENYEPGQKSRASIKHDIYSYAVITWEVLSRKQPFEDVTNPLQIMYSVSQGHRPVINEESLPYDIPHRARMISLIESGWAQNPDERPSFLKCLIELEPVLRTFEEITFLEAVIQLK
The experiment in a line: RIPK2-XIAP binding competition PPI assay (TR-FRET). To be noted: RIPK2/XIAP binding competition PPI assay; for Emax: Amax, read-out: PPI Amax bin; for IC50: read-out: PPI IC50 bin. Put shortly: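 Compounds (in DMSO, 100-fold stock) incubated 120 min at 23 °C with 1 nM GST-RIPK2 (aa 1-310) and 25 nM His-XIAP(BIR2 aa 152-231)-avi, plus anti-His-XL665 and anti-GST-Tb, in pH 7.5 Tris buffer. Read-out: 665/520 nm emission ratio. Normalized to no-inhibitor (0%) and 50 nM GSK583 (−100%); Amax binned A–D.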

The test system of assay [3] is NF-κB pathway (SEAP) in THP1-Dual cells. The experiment in a line: THP-1 Dual cell SEAP assay (L18-MDP stimulated). Type of assay: cell-based. As to conditions: Homo sapiens, THP1-Dual, read-out: NF-κB THP1 IC50 bin. A digest of the protocol: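 IC50 values derive from non-linear regression of % inhibition, calculated against DMSO/L18-MDP-treated wells after media-only subtraction. NF-κB SEAP activity was read at OD 620-655 nm (QUANTI-Blue, 2 h, 37 °C) from supernatants of THP1-Dual cells. Cells had been compound-treated 30 min before overnight (20-24 h) stimulation with 10 ng/mL final L18-MDP.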

T1 sequence (O43353 1-310): as the sequence (O43353 1-310 limits assumed) above

For orientation: IC50 means the concentration needed to halve the response being measured. As to `COc1cc2nc(N)c(-c3cc(F)c(N)nc3F)n2cc1S(=O)(=O)C(C)(C)C` [Example 40, 3-(6-amino-2,5-difluoropyridin-3-yl)-6-(tert-butylsulfonyl)-7-methoxyimidazo[1,2-a]pyridin-2-amine], the IC50 was over 20 nM in assay [1], over 20 nM in assay [2] and over 1000 nM in assay [3]. For the same molecule, in assay [2], the Emax lay in the range of 55 to 80%.
In the case of `CC(C)(C)S(=O)(=O)c1cn2c(-c3cc(F)c(N)nc3F)cnc2cc1OCCN1CC(O)C1` [Example 41, 1-(2-((3-(6-amino-2,5-difluoropyridin-3-yl)-6-(tert-butylsulfonyl)imidazo[1,2-a]pyridin-7-yl)oxy)ethyl)azetidin-3-ol], the IC50 in assay [1] was 2.5 to 20 nM; in assay [2] it was 2.5 to 20 nM; in assay [3], over 1000 nM. The Emax in assay [2] was over 80%.
Regarding `CN(C)C(=O)c1cc2ncc(-c3cc(F)c(N)nc3F)n2cc1S(=O)(=O)C(C)(C)C` [Example 42, 3-(6-amino-2,5-difluoropyridin-3-yl)-6-(tert-butylsulfonyl)-N,N-dimethylimidazo[1,2-a]pyridine-7-carboxamide], the IC50 is over 20 nM in assay [1], over 20 nM in assay [2] and over 1000 nM in assay [3]. For the same molecule, the Emax in assay [2] was 55 to 80%.
Consider `CC(C)(C)S(=O)(=O)c1cn2c(-c3cc(F)c(N)nc3F)cnc2cc1OC1CCN(CCO)C1` (centres unmarked) [Example 43, 2-(3-((3-(6-amino-2,5-difluoropyridin-3-yl)-6-(tert-butylsulfonyl)imidazo[1,2-a]pyridin-7-yl)oxy)pyrrolidin-1-yl)ethan-1-ol], for which the IC50 is 2.5 to 20 nM in assay [1], 2.5 to 20 nM in assay [2] and over 1000 nM in assay [3]. Besides, in assay [2], the Emax is over 80%.
Take `CC(C)(C)S(=O)(=O)c1cn2c(-c3cc(F)c(N)nc3F)cnc2cc1C(=O)NCCO` [Example 44, 3-(6-amino-2,5-difluoropyridin-3-yl)-6-(tert-butylsulfonyl)-N-(2-hydroxyethyl)imidazo[1,2-a]pyridine-7-carboxamide]: the values for the IC50 in assay [1], in assay [2] and in assay [3] were over 20 nM, over 20 nM and over 1000 nM, respectively. Moreover, the Emax in assay [2] is over 80%.
For `C[C@H](O)COc1cn2ncc(-c3cc(F)c(N)nc3F)c2cc1S(=O)(=O)C(C)(C)C` [Example 45, (S)-1-((3-(6-amino-2,5-difluoropyridin-3-yl)-5-(tert-butylsulfonyl)pyrazolo[1,5-a]pyridin-6-yl)oxy)propan-2-ol], the IC50 fell in the range of 1 to 2.5 nM in assay [1], 1 to 2.5 nM in assay [2] and 50 to 250 nM in assay [3]. In addition, the Emax in assay [2] was over 80%.
For the molecule `C[C@H](O)COc1cn2ncc(-c3cc(Cl)c(N)nc3F)c2cc1S(=O)(=O)C(C)(C)C` [Example 46, (S)-1-((3-(6-amino-5-chloro-2-fluoropyridin-3-yl)-5-(tert-butylsulfonyl)pyrazolo[1,5-a]pyridin-6-yl)oxy)propan-2-ol], the IC50 in assay [1] was 1 to 2.5 nM; in assay [2], 1 to 2.5 nM; in assay [3] it was 50 to 250 nM. The Emax in assay [2] was over 80%.
On to `CC(C)(CO)COc1cc2ncc(-c3cc(F)c(N)nc3F)n2cc1S(=O)(=O)C(C)(C)C` [Example 47, 3-((3-(6-amino-2,5-difluoropyridin-3-yl)-6-(tert-butylsulfonyl)imidazo[1,2-a]pyridin-7-yl)oxy)-2,2-dimethylpropan-1-ol], for which the IC50 in assay [1] lay in the range of 1 to 2.5 nM; in assay [2], 1 to 2.5 nM; in assay [3] it was 50 to 250 nM. Also, the Emax in assay [2] is over 80%.
For `CCC(CO)COc1cc2ncc(-c3cc(F)c(N)nc3F)n2cc1S(=O)(=O)C(C)(C)C` (centres unmarked) [Example 48, 2-(((3-(6-amino-2,5-difluoropyridin-3-yl)-6-(tert-butylsulfonyl)imidazo[1,2-a]pyridin-7-yl)oxy)methyl)butan-1-ol], the figures for the IC50 in assay [1], in assay [2] and in assay [3] were 1 to 2.5 nM, 2.5 to 20 nM and 50 to 250 nM, respectively. Besides, the Emax in assay [2] is over 80%.
The matching figures for `CC(C)(C)S(=O)(=O)c1cn2c(-c3cc(F)c(N)nc3F)cnc2cc1OCC1(CO)COC1` [Example 49, (3-(((3-(6-amino-2,5-difluoropyridin-3-yl)-6-(tert-butylsulfonyl)imidazo[1,2-a]pyridin-7-yl)oxy)methyl)oxetan-3-yl)methanol]: 2.5 to 20 nM, 2.5 to 20 nM, 250 to 1000 nM and over 80%.
The matching figures for `Cc1c(-c2cnc3cc(OCCO)c(S(=O)(=O)C(C)(C)C)cn23)cnc(N)c1F` [Example 50, 2-((3-(6-amino-5-fluoro-4-methylpyridin-3-yl)-6-(tert-butylsulfonyl)imidazo[1,2-a]pyridin-7-yl)oxy)ethan-1-ol]: over 20 nM, over 20 nM, over 1000 nM and 55 to 80%.
As for `Cc1nc(N)c(F)cc1-c1cnc2cc(OCCO)c(S(=O)(=O)C(C)(C)C)cn12` [Example 51, 2-((3-(6-amino-5-fluoro-2-methylpyridin-3-yl)-6-(tert-butylsulfonyl)imidazo[1,2-a]pyridin-7-yl)oxy)ethan-1-ol], the figures for the IC50 in assay [1], in assay [2] and in assay [3] were over 20 nM, over 20 nM and over 1000 nM, respectively. For the same molecule, the Emax in assay [2] was under 30%.
As for `CC(C)(C)S(=O)(=O)c1cn2c(-c3cc4cc[nH]c4nc3F)cnc2cc1OCCO` [Example 52, 2-((6-(tert-butylsulfonyl)-3-(6-fluoro-1H-pyrrolo[2,3-b]pyridin-5-yl)imidazo[1,2-a]pyridin-7-yl)oxy)ethan-1-ol], the IC50 in assay [1] is under 1 nM; in assay [2], under 1 nM; in assay [3], under 50 nM. In addition, in assay [2], the Emax is over 80%.
On to `CC(C)(C)S(=O)(=O)c1cn2c(-c3cnc4[nH]ccc4c3)cnc2cc1OCCO` [Example 53, 2-((6-(tert-butylsulfonyl)-3-(1H-pyrrolo[2,3-b]pyridin-5-yl)imidazo[1,2-a]pyridin-7-yl)oxy)ethan-1-ol], for which the IC50 in assay [1] is under 1 nM; in assay [2], 1 to 2.5 nM; in assay [3] it was 50 to 250 nM. In addition, the Emax in assay [2] is over 80%.
The matching figures for `CC(C)(C)S(=O)(=O)c1cn2c(-c3cc(F)c(N)nc3F)cnc2cc1OCC(F)(F)CO` [Example 54, 3-((3-(6-amino-2,5-difluoropyridin-3-yl)-6-(tert-butylsulfonyl)imidazo[1,2-a]pyridin-7-yl)oxy)-2,2-difluoropropan-1-ol]: 1 to 2.5 nM, 2.5 to 20 nM, 50 to 250 nM and over 80%.
The matching figures for `CC(C)(C)S(=O)(=O)c1cn2c(-c3cc(F)c(N)nc3F)cnc2cc1OCC(O)CO` (centres unmarked) [Example 55, 3-((3-(6-amino-2,5-difluoropyridin-3-yl)-6-(tert-butylsulfonyl)imidazo[1,2-a]pyridin-7-yl)oxy)propane-1,2-diol]: 2.5 to 20 nM, 2.5 to 20 nM, 250 to 1000 nM and over 80%.
The corresponding values for `CC(C)(C)S(=O)(=O)c1cn2c(-c3cc(F)c(N)nc3F)cnc2cc1OCC1(CO)CC1` [Example 56, (1-(((3-(6-amino-2,5-difluoropyridin-3-yl)-6-(tert-butylsulfonyl)imidazo[1,2-a]pyridin-7-yl)oxy)methyl)cyclopropyl)methanol] are 2.5 to 20 nM, 2.5 to 20 nM, 50 to 250 nM and over 80%.
With `CC(C)(C)S(=O)(=O)c1cn2c(-c3cc(F)c(N)nc3F)cnc2cc1OCC(CO)C(F)(F)F` (centres unmarked) [Example 57, 2-(((3-(6-amino-2,5-difluoropyridin-3-yl)-6-(tert-butylsulfonyl)imidazo[1,2-a]pyridin-7-yl)oxy)methyl)-3,3,3-trifluoropropan-1-ol], the half-maximal inhibitory concentration (IC50) in assay [1] lay in the range of 2.5 to 20 nM; in assay [2], 2.5 to 20 nM; in assay [3], 250 to 1000 nM. The Emax in assay [2] is over 80%.
As to `COc1cc2ncc(-c3ccc(N)nc3F)n2cc1S(=O)(=O)C(C)(C)CO` [Example 58, 2-((3-(6-amino-2-fluoropyridin-3-yl)-7-methoxyimidazo[1,2-a]pyridin-6-yl)sulfonyl)-2-methylpropan-1-ol], the IC50 in assay [1] was over 20 nM; in assay [2] it was over 20 nM; in assay [3] it was over 1000 nM. The Emax in assay [2] is over 80%.
Turning to `CCCS(=O)(=O)Nc1cc(-c2cnc3cc(OC)c(S(=O)(=O)C(C)(C)CO)cn23)cc(OC)c1OC` [Example 59, N-(5-(6-((1-hydroxy-2-methylpropan-2-yl)sulfonyl)-7-methoxyimidazo[1,2-a]pyridin-3-yl)-2,3-dimethoxyphenyl)propane-1-sulfonamide], the IC50 was under 1 nM in assay [1], under 1 nM in assay [2] and under 50 nM in assay [3]. For the same molecule, in assay [2], the Emax was over 80%.
